“And” between values parts separate entries of the source, which are not always exact repeats. Equal entries are not always repeated.
Test: Pharmacokinetics in male Swiss Albino mouse, intravenous and oral (LC-MS/MS of plasma)
Type: in vivo
Settings: for Individual plasma concentration: individual mice; for Mean plasma concentration: N = 3
Experimental: The pharmacokinetics of 1H-indole-3-carbaldehyde quinolin-8-ylhydrazone (Compound C3) was evaluated following intravenous (3 mg/kg) and oral (15 mg/kg) solution administration of 1H-indole-3-carbaldehyde quinolin-8-ylhydrazone in male Swiss Albino mouse. The effect of the Test Item, 1H-indole-3-carbaldehyde quinolin-8-ylhydrazone on complete blood count (CBC) was also evaluated. Pharmacokinetic phase consisted of two groups, Group 1 and Group 2. Animals in Group 1 were given intravenous bolus dose in a vehicle containing 5% N,N-dimethylacetamide, 5% CREMOPHOR™ EL and 90% Dextrose solution (5% w/v) and those in Group 2 were given oral solution dose in a vehicle, the composition of which was same as that of intravenous formulation. In addition, the effect of Test Item on complete blood count was evaluated following intravenous and oral dose administration along with its vehicle controls. A total of four groups were used each with 6 mice.
From the pharmacokinetic group, predose samples were collected from 3 animals in each group. Following dose administration terminal blood samples were collected at each of the following time points (in triplicate): 0.083 (only for intravenous), 0.25, 0.5, 1, 2, 4, 8, 12 and 24 hours. At each time point, approximately 500 μL of whole blood was withdrawn from the retro orbital sinus and collected in labeled tubes containing dipotassium EDTA as anticoagulant (20 μL of 200 mM K2 EDTA solution per mL of blood). Plasma was separated by centrifuging the whole blood at about 2500 g for 10 minutes at 4° C. within 1 h of sample collection. Separated plasma was stored below minus 50° C. until bioanalysis. A sensitive LC-MS/MS method was used for the quantitation of 1H-indole-3-carbaldehyde quinolin-8-ylhydrazone. The lower limit of quantitation was 1.04 ng/mL. For CBC evaluation, approximately 500 μL of blood was collected in labeled tubes containing dipotassium EDTA as anticoagulant (10 […]/mL of blood) after 48 h of dose administration from all animals.
A total of 57 mice were divided into an intravenous dose group of 30 mice (Group 1) and oral dose group of 27 mice (Group 2). Animals in Group 1 received intravenous bolus dose via tail vein at 3 mg/kg and animals in Group 2 received oral solution dose via gavage at 15 mg/kg. Three animals were administered the dose for each time point (intravenous: 10 time points; Oral: 9 time points). Terminal blood samples were collected from each mouse under light ether anesthesia and plasma was separated.
Animals in Group 1 were administered an intravenous bolus dose via the tail vein (dosing volume: 6 mL/kg). Animals in Group 2 received oral dose by gavage with an oral dosing needle (dosing volume: 10 mL/kg). Animals in the CBC evaluation group were treated same as above except the animals in control group received vehicle instead of formulation.
Pharmacokinetic group: Predose samples were collected from 3 animals in each group. Following dose administration terminal blood samples were collected at each of the following time points (in triplicate): 0.083 (only for intravenous), 0.25, 0.5, 1, 2, 4, 8, 12 and 24 hours. For each time point, approximately 500 μL of whole blood was withdrawn from the retro orbital sinus and collected in labeled tubes containing dipotassium EDTA as anticoagulant (20 μL of 200 mM K2 EDTA solution per mL of blood). Plasma was separated by centrifuging the whole blood at about 2500 g for 10 minutes at 4° C. within 1 h of sample collection. Separated plasma was stored below minus 50° C. until bioanalysis.
An LC-MS/MS method was developed and employed for the quantitation of 1H-indole-3-carbaldehyde quinolin-8-ylhydrazone in the mouse plasma samples. The samples were prepared for analysis following liquid-liquid extraction using amodiaquin as internal standard. The lower limit of quantitation was 1.04 ng/mL.
Pharmacokinetic parameters were calculated using non-compartmental analysis tool of WINNONLIN™ Enterprise software (Version 5.1.1). […]

[1] = mouse plasma, IV 3 mg/kg, 0.25 h samples, listed as ICQH, 3 mg/kg
[2] = mouse, intravenous bolus 3 mg/kg, 24 h, BLQ = below LLOQ 1.04 ng/mL
[3] = mouse, oral solution 15 mg/kg, 24 h, BLQ = below LLOQ 1.04 ng/mL

Accepted conc. (repeat analysis) [1]: 199.60 c ng/mL and 225.35 c ng/mL
Initial conc. (repeat analysis) [1]: 132.16 ng/mL
Repeated conc. (repeat analysis) [1]: 225.35 ng/mL
Clearance as share of liver blood flow (mouse, IV 3 mg/kg): about 60 % of liver blood flow
Volume of distribution (mouse, IV 3 mg/kg): 4.28 Ukg
Volume of distribution relative to total body water (mouse, IV 3 mg/kg): about 6 times of total body water
Time till which plasma concentrations were quantifiable (mouse, following both intravenous (3 mg/kg) and oral (15 mg/kg) administration): 12 h
Individual plasma concentration (mouse, intravenous bolus 3 mg/kg, 0.25 h, LLOQ 1.04 ng/mL, 3 mg/kg): 307.05 ng/mL and 225.35 ng/mL
Individual plasma concentration (mouse, intravenous bolus 3 mg/kg, 1 h, LLOQ 1.04 ng/mL, 3 mg/kg): 184.80 ng/mL and 140.18 ng/mL
Individual plasma concentration (mouse, intravenous bolus 3 mg/kg, 2 h, LLOQ 1.04 ng/mL, 3 mg/kg): 76.60 ng/mL and 47.02 ng/mL
Individual plasma concentration (mouse, intravenous bolus 3 mg/kg, 4 h, LLOQ 1.04 ng/mL, 3 mg/kg): 27.25 ng/mL and 38.13 ng/mL
Individual plasma concentration (mouse, intravenous bolus 3 mg/kg, 8 h, LLOQ 1.04 ng/mL, 3 mg/kg): 5.65 ng/mL and 11.10 ng/mL
Individual plasma concentration (mouse, intravenous bolus 3 mg/kg, 12 h, BLQ = below LLOQ 1.04 ng/mL, 3 mg/kg): 2.20 ng/mL and BLQ
Individual plasma concentration (mouse, intravenous bolus 3 mg/kg, 12 h, BLQ = below LLOQ 1.04 ng/mL, listed as ICQH, 3 mg/kg): 1.68 ng/mL and 2.20 ng/mL and BLQ
Mean plasma concentration [2]: BLQ
Individual plasma concentration [2]: BLQ
Time of maximum concentration post-dose (mouse, oral solution 15 mg/kg): 1.0 h
Individual plasma concentration (mouse, oral solution 15 mg/kg, 8 h, LLOQ 1.04 ng/mL): 71.29 ng/mL and 78.06 ng/mL
Mean plasma concentration [3]: BLQ
Individual plasma concentration [3]: BLQ
SMILES: C(=NNc1cccc2cccnc12)c1c[nH]c2ccccc12 [Compound C3, 1H-indole-3-carbaldehyde quinolin-8-ylhydrazone]
Individual plasma concentration (mouse, intravenous bolus 3 mg/kg, 0.083 h, LLOQ 1.04 ng/mL, 3 mg/kg): 2253.61 ng/mL and 1125.73 ng/mL and 75.62 b ng/mL
Individual plasma concentration (mouse, intravenous bolus 3 mg/kg, 0.083 h, LLOQ 1.04 ng/mL, listed as ICQH, 3 mg/kg): 2253.61 ng/mL and 1125.73 ng/mL and 75.62 ng/mL
Individual plasma concentration (mouse, intravenous bolus 3 mg/kg, 0.25 h, LLOQ 1.04 ng/mL, listed as ICQH, 3 mg/kg): 199.60 ng/mL and 307.05 ng/mL and 225.35 ng/mL
Individual plasma concentration (mouse, intravenous bolus 3 mg/kg, 0.5 h, LLOQ 1.04 ng/mL, 3 mg/kg): 388.25 ng/mL and 148.82 ng/mL and 339.56 ng/mL
Individual plasma concentration (mouse, intravenous bolus 3 mg/kg, 0.5 h, LLOQ 1.04 ng/mL, listed as ICQH, 3 mg/kg): 388.25 ng/mL and 148.82 ng/mL and 339.56 ng/mL
Individual plasma concentration (mouse, intravenous bolus 3 mg/kg, 1 h, LLOQ 1.04 ng/mL, listed as ICQH, 3 mg/kg): 184.80 ng/mL and 116.46 ng/mL and 140.18 ng/mL
Individual plasma concentration (mouse, intravenous bolus 3 mg/kg, 2 h, LLOQ 1.04 ng/mL, listed as ICQH, 3 mg/kg): 71.88 ng/mL and 76.60 ng/mL and 47.02 ng/mL
Individual plasma concentration (mouse, intravenous bolus 3 mg/kg, 4 h, LLOQ 1.04 ng/mL, listed as ICQH, 3 mg/kg): 42.37 ng/mL and 27.25 ng/mL and 38.13 ng/mL
Individual plasma concentration (mouse, intravenous bolus 3 mg/kg, 8 h, LLOQ 1.04 ng/mL, listed as ICQH, 3 mg/kg): 10.11 ng/mL and 5.65 ng/mL and 11.10 ng/mL
Individual plasma concentration (mouse, oral solution 15 mg/kg, 0.25 h, LLOQ 1.04 ng/mL): 53.05 ng/mL and 113.38 ng/mL and 254.20 ng/mL
Individual plasma concentration (mouse, oral solution 15 mg/kg, 0.25 h, LLOQ 1.04 ng/mL, listed as ICQH): 53.05 ng/mL and 113.38 ng/mL and 254.20 ng/mL
Individual plasma concentration (mouse, oral solution 15 mg/kg, 0.5 h, LLOQ 1.04 ng/mL): 96.22 ng/mL and 72.56 ng/mL and 273.76 ng/mL
Individual plasma concentration (mouse, oral solution 15 mg/kg, 0.5 h, LLOQ 1.04 ng/mL, listed as ICQH): 96.22 ng/mL and 72.56 ng/mL and 273.76 ng/mL
Individual plasma concentration (mouse, oral solution 15 mg/kg, 1 h, LLOQ 1.04 ng/mL): 143.63 ng/mL and 32.21 ng/mL and 422.48 ng/mL
Individual plasma concentration (mouse, oral solution 15 mg/kg, 1 h, LLOQ 1.04 ng/mL, listed as ICQH): 143.63 ng/mL and 32.21 ng/mL and 422.48 ng/mL
Individual plasma concentration (mouse, oral solution 15 mg/kg, 2 h, LLOQ 1.04 ng/mL): 51.85 ng/mL and 95.13 ng/mL and 142.67 ng/mL
Individual plasma concentration (mouse, oral solution 15 mg/kg, 2 h, LLOQ 1.04 ng/mL, listed as ICQH): 51.85 ng/mL and 95.13 ng/mL and 142.67 ng/mL
Individual plasma concentration (mouse, oral solution 15 mg/kg, 4 h, LLOQ 1.04 ng/mL): 185.50 ng/mL and 87.82 ng/mL and 164.88 ng/mL
Individual plasma concentration (mouse, oral solution 15 mg/kg, 4 h, LLOQ 1.04 ng/mL, listed as ICQH): 185.50 ng/mL and 87.82 ng/mL and 164.88 ng/mL
Individual plasma concentration (mouse, oral solution 15 mg/kg, 8 h, LLOQ 1.04 ng/mL, listed as ICQH): 76.65 ng/mL and 71.29 ng/mL and 78.06 ng/mL
Individual plasma concentration (mouse, oral solution 15 mg/kg, 12 h, LLOQ 1.04 ng/mL): 4.05 ng/mL and 11.47 ng/mL and 11.21 ng/mL
Individual plasma concentration (mouse, oral solution 15 mg/kg, 12 h, LLOQ 1.04 ng/mL, listed as ICQH): 4.05 ng/mL and 11.47 ng/mL and 11.21 ng/mL

Source: patent US8039505B2, “Compounds for modulating T-cells” (University of Utah Research Foundation, priority 2007, dated 2011)
